In patent USRE39130E1 (Bayer Cropscience K.K., priority 1986, dated 2006):

Legend:
[1] = test system: white-backed planthopper (Sogatella furcifera); assay: Test on planthoppers: white-backed planthopper (spray on rice plants, kill ratio); assay type: in vivo; conditions: sprayed rice plants, kill ratio two days later, compared with W-1, W-2 and Q-1
Protocol: (§1) In the same way as above, the kill ratio on white-backed planthopper (Sogatella furcifera) and organophosphate-resistant smaller brown planthopper (Laodelphax stiatellus) was calculated.

[2] = test system: organophosphate-resistant smaller brown planthopper (Laodelphax stiatellus); assay: Test on planthoppers: smaller brown planthopper (spray on rice plants, kill ratio); assay type: in vivo; conditions: sprayed rice plants, kill ratio two days later, compared with W-1, W-2 and Q-1
Protocol: as §1

[3] = test system: green peach aphids (Myzus persicae) having resistance to organophosphate and carbamate chemicals; assay: Test on green peach aphids having resistance to organophosphate and carbamate chemicals (spray on eggplant seedlings, kill ratio); assay type: in vivo; conditions: sprayed eggplant seedlings, 28° C., kill ratio twenty-four hours after spraying; compared with W-1, W-2 and Q-2
Description: Test on green peach aphids (Myzus persicae) having resistance to organophosphate and carbamate chemicals
Bred green peach aphids having resistance to organophsophates and carbamates were inoculated on eggplant (black elongate variety) seedlings, about 20 cm tall, grown in unglazed pots having a diameter of 15 cm at a rate of about 200 per seedling. One day after the inoculation, a water dilution of each of the active compounds in a predetermined concentration prepared as in Example 6 was sprayed in sufficient amounts by means of a spray gun. After the spraying, the pots were left to stand in a greenhouse kept at 28° C. Twenty-four hours after the spraying, the kill ratio was calculated. The above test was carried out through two replicates.

[4] = test system: organophosphate-resistant green rice leafhoppers (Nephotettix cincticeps); assay: Test on organophosphate-resistant green rice leafhoppers (spray on rice plants, kill ratio); conditions: sprayed rice plants, 30 female imagoes, kill ratio two days later; compared with comparison compounds W-1, W-2 and Q 2
Protocol: Test on organophosphate-resistant green rice leafhoppers (Nephotettix cincticeps)
Preparation of a test chemical
Solvent: 3 parts by weight of xylene
Emulsifier: 1 part by weight of polyoxyethylene alkylphenyl ether
A water dilution of each of the reactive compounds in a predetermined concentration prepared as above was sprayed onto rice plants, about 10 cm tall, grown in pots having a diameter of 12 cm at a rate of 10 ml per pot. […] The pots were placed in a constant-temperature chamber. Two days later, the number of dead insects was examined, and the kill ratio was calculated.

| Compound | efficacy (kill ratio) compared with comparison compounds [1] | efficacy (kill ratio) compared with comparison compounds [2] | efficacy (kill ratio) compared with comparison compounds [3] | efficacy (kill ratio) compared with comparison compounds [4] |
| --- | --- | --- | --- | --- |
| N#C/N=C1\NCCN1Cc1ccc(Cl)nc1 [Compound 5, 1-(2-chloro-5-pyridylmethyl)-2-cyanoiminoimidazolidine] | considerably better efficacy | considerably better efficacy | considerably better efficacy | considerably better efficacy |
| Cc1cnc(CN2CCN/C2=N\C#N)cn1 [Compound 54, 1-(2-methyl-5-pyrazinylmethyl)-2-cyanoiminoimidazolidine] | – | – | – | considerably better efficacy |
| N#C/N=C1\SCCN1Cc1cnc(Cl)s1 [Compound 69] | – | – | considerably better efficacy | considerably better efficacy |
